Source: patent US20240102051A1, “MULTIFUNCTIONAL COPOLYMERIC NANOPARTICLE” (Iran University of Medical Sciences, priority 2021, published 2024)

Tested on: P. aeruginosa
Assay: Antibacterial activity (MIC) against P. aeruginosa
Format: cell-based, Pseudomonas aeruginosa
Experimental: In this example, the antibacterial activity of exemplary multifunctional copolymeric nanoparticles against Gram-negative and Gram-positive strains, including P. aeruginosa, E. coli, S. aureus, and Enterococcus, were investigated based on their minimum bactericidal concentration (MBC) and minimum inhibitory concentration (MIC). Reaction time for synthesis of exemplary multifunctional copolymeric nanoparticles (AX) was varied from 1 hour to 72 hours to fine-tune the antibacterial activity of the exemplary multifunctional copolymeric nanoparticles. FIG. 11 illustrates a chart 1100 for the antibacterial activity of exemplary multifunctional copolymeric nanoparticles synthesized in different reaction times (1, 3, 8, 24, and 72 hours), consistent with one or more exemplary embodiments of the present disclosure.

gentamicin
MIC: > 64 µg/mL
